Experimental data from patent US10711004B2 (Genentech, Inc., priority 2018, dated 2020).
Like-named read-outs stand apart in the source and are kept apart here.

Molecular target: human TRPA1 channel (Homo sapiens (Human), UniProt O75762)
Assay: hTRPA1 CHO Ca2+ FLIPR Tetra assay, block of cinnamaldehyde induced calcium influx
Assay type: cell-based
Conditions: CHO cells expressing TRPA1, Hill coefficient fixed to 1.5
Summary of the method: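 Calcium-dye-loaded TRPA1-expressing CHO cells in HBSS/20 mM HEPES pH 7.4, 0.02% BSA were preincubated with compound for 10 or 90 min at room temperature. Calcium influx evoked by roughly an EC50 concentration of cinnamaldehyde was then read on FLIPR Tetra; IC50 came from curve fits with a fixed Hill coefficient.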

[1] = read-out: hTRPA1 IC50 (10 min), compounds incubated 10 minutes at room temperature before cinnamaldehyde agonist
[2] = read-out: hTRPA1 IC50 (90 min), compounds incubated 90 minutes at room temperature before cinnamaldehyde agonist

Sequence of human TRPA1 channel (O75762 whole entry): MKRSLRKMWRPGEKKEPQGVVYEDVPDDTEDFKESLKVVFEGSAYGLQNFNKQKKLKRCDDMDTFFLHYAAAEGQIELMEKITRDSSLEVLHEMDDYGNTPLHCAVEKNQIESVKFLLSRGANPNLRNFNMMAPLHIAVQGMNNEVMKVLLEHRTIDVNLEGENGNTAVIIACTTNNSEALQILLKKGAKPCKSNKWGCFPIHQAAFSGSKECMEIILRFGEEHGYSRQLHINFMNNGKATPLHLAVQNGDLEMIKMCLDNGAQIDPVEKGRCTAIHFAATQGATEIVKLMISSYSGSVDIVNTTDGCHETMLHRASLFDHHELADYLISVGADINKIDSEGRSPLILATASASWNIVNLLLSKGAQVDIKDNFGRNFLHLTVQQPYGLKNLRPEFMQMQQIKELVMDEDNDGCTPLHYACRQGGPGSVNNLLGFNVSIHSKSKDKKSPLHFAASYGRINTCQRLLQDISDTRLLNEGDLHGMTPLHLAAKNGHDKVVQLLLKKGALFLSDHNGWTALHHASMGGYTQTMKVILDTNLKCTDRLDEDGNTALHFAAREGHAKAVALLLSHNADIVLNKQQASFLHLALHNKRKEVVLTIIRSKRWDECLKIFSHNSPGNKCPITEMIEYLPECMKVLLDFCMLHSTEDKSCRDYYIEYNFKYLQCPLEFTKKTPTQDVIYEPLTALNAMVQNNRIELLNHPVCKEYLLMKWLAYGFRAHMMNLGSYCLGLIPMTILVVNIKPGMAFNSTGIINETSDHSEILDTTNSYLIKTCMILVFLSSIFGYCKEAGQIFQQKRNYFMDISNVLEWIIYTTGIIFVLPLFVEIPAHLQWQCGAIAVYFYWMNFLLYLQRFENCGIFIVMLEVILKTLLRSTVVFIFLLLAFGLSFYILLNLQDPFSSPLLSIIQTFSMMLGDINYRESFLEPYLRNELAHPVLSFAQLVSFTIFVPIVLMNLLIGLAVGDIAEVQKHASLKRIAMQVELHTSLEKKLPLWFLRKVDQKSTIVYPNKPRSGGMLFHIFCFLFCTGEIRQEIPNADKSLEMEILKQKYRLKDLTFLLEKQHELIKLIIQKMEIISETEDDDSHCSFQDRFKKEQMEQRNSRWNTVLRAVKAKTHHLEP

IC50 [1] [nM]	IC50 [2] [nM]	IC50 (compounds incubated 10 minutes at room temperature before cinnamaldehyde agonist) [nM]	Structure (SMILES)
143	110		Cn1cnc2ncn(Cc3nc([C@H]4[C@@H]5CN(c6ncccc6F)C[C@@H]54)no3)c(=O)c21 [Example Compound 132, 1-((3-((1R,5S,6r)-3-(3-fluoropyridin-2-yl)-3-azabicyclo[3.1.0]hexan-6-yl)-1,2,4-oxadiazol-5-yl)methyl)-7-methyl-1,7-dihydro-6H-purin-6-one]
71.6	19		Cc1cccc(N2C[C@@H]3[C@H](C2)[C@H]3c2noc(Cn3cnc4ncn(C)c4c3=O)n2)c1 [Example Compound 224, 7-methyl-1-((3-((1R,5S,6r)-3-(m-tolyl)-3-azabicyclo[3.1.0]hexan-6-yl)-1,2,4-oxadiazol-5-yl)methyl)-1,7-dihydro-6H-purin-6-one]
46.1	40		Cn1cnc2ncn(Cc3nc([C@@H]4[C@H]5C=C(c6cccc(-c7cnco7)c6)C[C@H]54)no3)c(=O)c21 [Example Compound 280, 7-methyl-1-[[3-[(1R,5R,6S)-3-(3-oxazol-5-ylphenyl)-6-bicyclo[3.1.0]hex-2-enyl]-1,2,4-oxadiazol-5-yl]methyl]purin-6-one]
29	14		Cn1cnc2ncn(Cc3nc([C@@H]4[C@H]5C=C(c6ccc7c(cnn7C)c6)C[C@H]54)no3)c(=O)c21 [Example Compound 264, 7-methyl-1-[[3-[(1R,5R,6S)-3-(1-methylindazol-5-yl)-6-bicyclo[3.1.0]hex-2-enyl]-1,2,4-oxadiazol-5-yl]methyl]purin-6-one]
33.3	3.8		Cn1c(N)nc2ncn(Cc3nc([C@H]4[C@@H]5C=C(c6ccccc6)C[C@@H]54)no3)c(=O)c21 [Example Compound 255, 8-amino-7-methyl-1-[[3-[(1S,5S,6R)-3-phenyl-6-bicyclo[3.1.0]hex-2-enyl]-1,2,4-oxadiazol-5-yl]methyl]purin-6-one]

Continued, molecule first:

Structure (SMILES)	IC50 [1] [nM]	IC50 [2] [nM]	IC50 (compounds incubated 10 minutes at room temperature before cinnamaldehyde agonist) [nM]
Cn1cnc2ncn(Cc3nc([C@H]4[C@@H]5CN(c6ccc7c(cnn7C)c6)C[C@@H]54)no3)c(=O)c21	141		
Cn1cnc2ncn(Cc3nc([C@H]4[C@@H]5CN(c6ccc7ccncc7c6)C[C@@H]54)no3)c(=O)c21	69.2		
Cc1ccnc2ncn(Cc3nc([C@H]4[C@@H]5Cc6ccccc6[C@@H]54)no3)c(=O)c12 (stereo in doubt) [Example Compound 15, 5-methyl-3-[[3-[rac-(1R,1 aR,6aS)-1,1a,6,6a-tetrahydrocyclopropa[a]inden-1-yl]-1,2,4-oxadiazol-5-yl]methyl]pyrido[2,3-d]pyrimidin-4-one]			305
Cn1cnc2ncn(Cc3nc([C@H]4[C@@H]5C=C(c6ccc(F)c(F)c6)C[C@@H]54)no3)c(=O)c21 [Example Compound 93, 1-((3-((1S,5S,6R)-3-(3,4-difluorophenyl)bicyclo[3.1.0]hex-2-en-6-yl)-1,2,4-oxadiazol-5-yl)methyl)-7-methyl-1,7-dihydro-6H-purin-6-one]	12.7	3.9	
Cc1ccnc2ncn(Cc3nc([C@H]4C[C@H](c5ccc(Cl)cc5)C4)no3)c(=O)c12 [Example Compound 17, 3-((3-((trans)-3-(4-chlorophenyl)cyclobutyl)-1,2,4-oxadiazol-5-yl)methyl)-5-methylpyrido[2,3-d]pyrimidin-4(3H)-one]	21.3		
Cn1cnc2ncn(Cc3nc([C@H]4[C@@H]5CN(c6ccccc6C#N)C[C@@H]54)no3)c(=O)c21 [Example Compound 98, 2-((1R,5S,6r)-6-(5-((7-methyl-6-oxo-6,7-dihydro-1H-purin-1-yl)methyl)-1,2,4-oxadiazol-3-yl)-3-azabicyclo[3.1.0]hexan-3-yl)benzonitrile]	157	100	
Cn1cnc2ncn(Cc3nc([C@H]4[C@@H]5CN(c6cccc(C(F)F)c6)C[C@@H]54)no3)c(=O)c21	64.4		
